This passage reports inhibition results from publication PMC12682859, “Interconnected roles of mitochondrial carrier proteins ANT, PiT, and UCPs in proton transport” (Frontiers in Molecular Biosciences, 2025).

Assay [1] deals with T1, ANT1 (Bos taurus, UniProt P02722).
T1 sequence (P02722 2-298): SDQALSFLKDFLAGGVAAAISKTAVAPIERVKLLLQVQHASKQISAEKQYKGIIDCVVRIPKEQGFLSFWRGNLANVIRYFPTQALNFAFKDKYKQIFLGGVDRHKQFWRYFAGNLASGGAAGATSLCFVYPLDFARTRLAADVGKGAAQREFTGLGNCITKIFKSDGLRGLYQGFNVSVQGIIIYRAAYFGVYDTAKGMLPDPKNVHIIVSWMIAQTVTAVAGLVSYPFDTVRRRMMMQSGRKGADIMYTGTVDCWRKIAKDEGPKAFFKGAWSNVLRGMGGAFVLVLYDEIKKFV
The experiment in a line: biochemical. Also noted: gene SLC25A4; full length, N-terminal His6 tag kept, pelB leader removed; E. coli membranes; mainly monomer in liposomes; SPQ fluorescence quenching assay of proton transport by carriers reconstituted in EYPC liposomes, palmitic acid activated. To be noted: EYPC liposomes + 2.5% cardiolipin, 100 uM palmitic acid. Here is the method:
FIGURE 8 Proton transport and CATR-inhibited proton transport rates of reconstituted UCP2, UCP4, ANT1, co-reconstituted UCP4:ANT1 and UCP2:ANT1 (1:1 stoichiometric ratio) in liposomes made from EYPC containing 2.5% added CL, in the presence of 100 μM palmitic acid (PA). Each experiment included final concentrations of 1 μM total combined protein and 1 mM lipid. Dark bars represent the total proton transport rate in the absence of CATR, shaded Gray bars represent the proton transport rate in the presence of 5 μM CATR (for corresponding numerical values, see Supplementary Table S6). Each bar represents the average transport rate of at least 10 repeats (from at least two independent experiments), and the error bars show the standard deviations. Asterisks (*) indicate a statistically significant difference (p < 0.05) between the total proton efflux and CATR-inhibited efflux within each combination. Note that the proton transport data for UCP4, UCP2, and ANT1 are reproduced from Figure 5. For the 1:1 combination of UCP4 and ANT1 heterotetramers, to further confirm the cooperativity between ANT1 and UCP4 dimers, we examined proton transport in the presence of the known ANT inhibitor CATR. CATR is an irreversible substrate inhibitor of ANT that blocks its ADP-ATP exchange function ([Klingenberg et al., 1975]). […]

The target of assay [2] is T2, UCP4:ANT1 heterotetramer (1:1) (Homo sapiens; Bos taurus, UniProt O95847+P02722).
T2 construct: gene SLC25A27; co-reconstituted 1:1 in liposomes from purified N-terminally His6-tagged monomers (bovine ANT1, human UCP4); heterotetramer
T2 sequence (O95847 1-323): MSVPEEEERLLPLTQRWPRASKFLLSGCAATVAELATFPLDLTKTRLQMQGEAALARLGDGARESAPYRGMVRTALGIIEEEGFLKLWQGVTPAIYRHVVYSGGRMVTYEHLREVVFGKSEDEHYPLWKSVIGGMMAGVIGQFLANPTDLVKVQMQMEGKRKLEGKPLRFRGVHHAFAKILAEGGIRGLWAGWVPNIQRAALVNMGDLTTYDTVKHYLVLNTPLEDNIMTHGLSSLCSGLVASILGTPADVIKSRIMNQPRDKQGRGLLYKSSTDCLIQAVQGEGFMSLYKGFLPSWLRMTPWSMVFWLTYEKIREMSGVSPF
T2 sequence (P02722 2-298): T1 sequence (P02722 2-298)
The experiment in a line: SPQ fluorescence proton efflux in proteoliposomes. In kind it is biochemical. To be noted: read-out: % inhibition at 5 uM.

In assay [3] the target is T3, UCP2:ANT1 heterotetramer (1:1) (Homo sapiens; Bos taurus, UniProt P02722+P55851).
T3 construct: co-reconstituted 1:1 in liposomes from purified N-terminally His6-tagged monomers (bovine ANT1, human UCP2); heterotetramer
T3 sequence (P55851 1-309): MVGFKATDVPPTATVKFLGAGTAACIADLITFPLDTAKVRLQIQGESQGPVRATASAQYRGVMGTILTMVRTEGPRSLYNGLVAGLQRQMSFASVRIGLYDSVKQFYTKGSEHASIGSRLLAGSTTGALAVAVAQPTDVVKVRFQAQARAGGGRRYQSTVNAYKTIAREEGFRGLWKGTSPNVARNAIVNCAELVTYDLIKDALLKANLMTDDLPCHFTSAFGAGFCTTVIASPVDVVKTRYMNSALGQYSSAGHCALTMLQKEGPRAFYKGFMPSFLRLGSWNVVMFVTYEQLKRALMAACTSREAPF
T3 sequence (P02722 2-298): T1 sequence (P02722 2-298)
The experiment in a line: biochemical. The arrangement: SPQ fluorescence quenching assay of proton transport by carriers reconstituted in EYPC liposomes, palmitic acid activated. To be noted: EYPC liposomes + 2.5% cardiolipin, 100 uM palmitic acid. The method, then: (§1) FIGURE 8 Proton transport and CATR-inhibited proton transport rates of reconstituted UCP2, UCP4, ANT1, co-reconstituted UCP4:ANT1 and UCP2:ANT1 (1:1 stoichiometric ratio) in liposomes made from EYPC containing 2.5% added CL, in the presence of 100 μM palmitic acid (PA). Each experiment included final concentrations of 1 μM total combined protein and 1 mM lipid. Dark bars represent the total proton transport rate in the absence of CATR, shaded Gray bars represent the proton transport rate in the presence of 5 μM CATR (for corresponding numerical values, see Supplementary Table S6). Each bar represents the average transport rate of at least 10 repeats (from at least two independent experiments), and the error bars show the standard deviations. Asterisks (*) indicate a statistically significant difference (p < 0.05) between the total proton efflux and CATR-inhibited efflux within each combination. Note that the proton transport data for UCP4, UCP2, and ANT1 are reproduced from Figure 5. For the 1:1 combination of UCP4 and ANT1 heterotetramers, to further confirm the cooperativity between ANT1 and UCP4 dimers, we examined proton transport in the presence of the known ANT inhibitor CATR. CATR is an irreversible substrate inhibitor of ANT that blocks its ADP-ATP exchange function ([Klingenberg et al., 1975]). We surmised that irreversible inhibition of the nucleotide exchange activity of ANT and prevention of its alternating transport function could also affect the cooperativity of proton transport activity of ANT1-UCP4 heterotetramers. To verify this hypothesis, we first examined the inhibitory effect of CATR on the proton transport activity of individually reconstituted UCP4 and ANT1. […] A similar inhibitory effect of CATR on the proton transport function of ANT has been reported in a previous study ([Kreiter et al., 2021]). […] Supplementary Material . Figure S1. Schematic of proton transport assay and data analysis. […]

Assay [4] deals with T4, UCP4 (Homo sapiens, UniProt O95847).
T4 construct: gene SLC25A27; full length, N-terminal His6 tag kept, pelB leader removed; E. coli membranes; homotetramer in liposomes
T4 sequence (O95847 1-323): T2 sequence (O95847 1-323)
The experiment in a line: biochemical. Also noted: SPQ fluorescence quenching assay of proton transport by carriers reconstituted in EYPC liposomes, palmitic acid activated. The note with it: EYPC liposomes + 2.5% cardiolipin, 100 uM palmitic acid. The method, then:
as §1

Assay [5] has as its target T5, UCP2 (Homo sapiens, UniProt P55851).
T5 construct: full length, N-terminal His6 tag kept, pelB leader removed; E. coli membranes; homotetramer in liposomes
T5 sequence (P55851 1-309): T3 sequence (P55851 1-309)
The experiment in a line: biochemical. To be noted: EYPC liposomes + 2.5% cardiolipin, 100 uM palmitic acid. The arrangement: SPQ fluorescence quenching assay of proton transport by carriers reconstituted in EYPC liposomes, palmitic acid activated. The method, then:
as §1

The structures appear in SMILES notation.

As for `C=C1[C@@H]2CC[C@H]3[C@]4(C)C[C@H](O[C@@H]5O[C@H](CO)[C@@H](OS(=O)(=O)O)[C@H](OS(=O)(=O)O)[C@H]5OC(=O)CC(C)C)CC(C(=O)O)(C(=O)O)[C@H]4CC[C@]3(C2)[C@H]1O` [CATR, carboxyatractyloside], the inhibition at 5 µM in assay [1] is 70.1%; in assay [2], ~71%; in assay [3], 73.6%; in assay [4], 2.7%; in assay [5], 1.7%.

As usually defined, the inhibition is the relative decrease from the control value, in per cent.
